# Data taken from patent publication US20190169134A1, “NOVEL CLASS OF QUINOLONE HETEROCYCLIC AROMATIC MOLECULES FOR CANCER TREATMENT” (RenoTarget Therapeutics, Inc., priority 2016, published 2019).
# Tests used:
# Format in all cases: cell-based, human
# HCC827 P cells = assay: Combination analysis of cell growth inhibition (SRB, CalcuSyn)
# Protocol: (§1) As described in Example 2.1. Two cell lines, HCC827-P and HCC827-TR (Tarceva-resistant HCC727 cells-an EGFRi resistant cell line with MET amplification) (Wang, Pursell et al. 2013) were used in the combination study. Exponentially growing HC[…] and HCC827-TR cells were seeded into 96-wells dishes at density of 3,000 cells per well. Twenty-four hours later, the cells were exposed concurrently to serial dilution of Reno647 or Carboplatin or Camptothecin alone or in combination at a ratio of 1:50 with Carboplatin or at ratio 1:1 with Camptothecin for 3 days. Reno647 were concurrently and sequentially with paclitaxel (Taxol) at ratio of 200:1 for 6 days. For sequential exposure, the cells were treated with Reno647 for 3 days, after removal of the drug containing medium, the cells were treated with Taxol for additional 3 days, or the cells were treated by Taxol first followed by the treatment with Reno 647. After incubation for 6 days, the cell growth was measured by SRB as described previously in Example 2.1 section, and the percentages of inhibition (1-T/C) % were calculated, and data were analyzed by a PC program, CalcuSyn, Biosoft (edited by T.-C. Chou, Memorial Sloan-Kettering Cancer Center, New York, and M. P. Hayball, at Cambridge, UK, 1996). The computer-calculated combination index (CI) was used to judge the outcomes of a combination: […] It has long been accepted that chemotherapy provided some benefit for patients with non-small-cell lung cancer (NSCLC) in terms of quality of life and symptomatology as well as modest improvements in survival. […] Cell growth was determined by SRB as described above. […] Cell growth was determined by SRB as described above. […] (FIG. 5 C&D, CIs were well below 1 at effective concentration), particularly at higher concentration where Reno647 achieves its effective inhibition on […]. […] However, induction of EGFR activation mediated by Taxol may compromise activity of EGFR inhibitors. To examine our hypothesis, Taxol was combined with Reno647 in three different sequential exposures: • Combination 1: exposure of HC[…] or TR cells to Reno647+Taxol simultaneously for 6 days. • Combination 2: exposure of the cells to Reno647 first for 3 days followed by treatment with Taxol for an additional 3 days, or • Combination 3: exposure of the cells to Taxol first for 3 days followed by treatment with Reno647 for an additional 3 days. Exposure of the cells to either Reno647 or Taxol served as controls. After exposure, cell growth was determined by SRB and analyzed as described in above section.
# HCC827 TR cells = assay: as above
# Protocol: as §1
# tested cancer cell lines = assay: Cell growth inhibition by SRB method, tested cancer cell lines overall; settings: data not provided
# From the text: Six human cancer cell lines have been used to evaluate effects of the compounds on proliferation of cancer cells. These cell lines include HCC827-P (or HCC827 parent cells), human non-small lung cancer cells, Parent NSCLC HCC827 cell line (which harbors EGFR gene amplification, Exon 19 (E19) deletion, and Exon 21 mutation (Wang, Ramakrishnan et al. 2010), and is an EGFRi sensitive cell line (Kim, Kim et al. 2010)); HCC827-TR16 (Tarceva-resistant HCC727 cell line), HCC827-OR16 (AZD9291-resistant HCC727 cell line), LNCaP (human prostate cancer cells—a hormonal-therapy sensitive cell line (Wang, Liu et al. 1997)); 22RV1 (human prostate cancer cells—a hormonal-therapy resistant cell line (Sramkoski, Pretlow et al. 1999)); and ACHN (human renal adenocarcinoma cells (Park, Jung et al. 2003)). LNCaP cells and 22RV1 cells were purchased from the American Type Culture Collection (Rockville, Md.) and others were gifts of friends.
# All cell lines were maintained in RPMI-1640 (GIBCO, Gaithersburg, Md.) with 10% heat-inactivated bovine serum (FBS) (Wang, Ossowski et al. 2004).
# Sulforhodamine B (SRB) was used to estimate cell growth as described previously (Skehan, Storeng et al. 1990). Briefly, cells grown exponentially were aliquoted into 96-well plates at a density of 2,500 to 5,000 cells/200 μl per well in RPMI 1640 medium containing 10% FBS. After twenty-four hours, the cells were exposed to indicated concentrations of tested compounds for 72 hrs or otherwise as indicated. The cells were then fixed with 10% trichloride acetic acid for 2 h at 4° C. The 10% trichloride acetic acid was removed, and the dishes were washed 5 times with tape water, and air-dried. The fixed and dried cells were then stained with 0.4% SRB in 1% acetic acid for 25 min, and the dishes were washed 5 times with 1% acetic acid and air-dried overnight. 200 μl of 10 mM of Tris buffer (pH 10.0) were added, and the dishes were rotated to completely dissolve the color. Absorbance at 570 nm, with a reference wavelength 690 nm, was measured on a 96-well microplate reader (SPECTRO Star^Nano, BMG Labtech). Mean, standard deviation (SD) and the percent of growth inhibition at each concentration point of the treatment were calculated. The percent of growth inhibition as defined as (1−T/C)×100 where T is the mean of the absorbance at 570 nm from the treatment, and C from control (drug vehicle only). IC50 was calculated using Sigma-plot software by regression of growth-concentration curve from each drug treatment.
# [1] = HCC827P, ratio 200:1, 3 days + 3 days
# [2] = HCC827TR, ratio 200:1, 3 days + 3 days
structure (smiles),measurement,setting,value
"C#Cc1cccc(Nc2ncnc3cc(OCCOC)c(NC(=O)c4ccc(F)c([N+](=O)[O-])c4)cc23)c1 [Reno647, 4-Fluoro-N-[4-(3-ethynyl-phenylamino)-7-(2-methoxy-ethoxy)-quinazolin-6-yl]-3-nitro-benzamide]","combination index (CI), Reno647 with Camptothecin","HCC827 P cells; HCC827 P, ratio 1:1, concurrent, 3 days, at effective concentration",below 1
same,"combination index (CI), Reno647 with Carboplatin","HCC827 P cells; HCC827 P, ratio 1:50, concurrent, 6 days, at effective concentrations",below 1
same,"combination index (CI), Reno647 first followed by Taxol",HCC827 P cells; [1],> 1
same,"combination index (CI), Taxol first followed by Reno647",HCC827 P cells; [1],< 1
same,"combination index (CI), Reno647 and Taxol concurrently","HCC827 P cells; HCC827P, ratio 200:1, 6 days",< 1
same,"combination index (CI), Reno647 with Camptothecin","HCC827 TR cells; HCC827 TR, ratio 1:1, concurrent, 3 days, at effective concentration",below 1
same,"combination index (CI), Reno647 with Carboplatin","HCC827 TR cells; HCC827 TR, ratio 1:50, concurrent, 6 days, at effective concentrations",below 1
same,"combination index (CI), Reno647 first followed by Taxol",HCC827 TR cells; [2],> 1
same,"combination index (CI), Taxol first followed by Reno647",HCC827 TR cells; [2],< 1
same,"combination index (CI), Reno647 and Taxol concurrently","HCC827 TR cells; HCC827TR, ratio 200:1, 6 days",< 1
same,activities against all tested cancer cells lines compared with NK-2206 and MLN8237,tested cancer cell lines,better activities
